Experimental data from US12084472B2 (Ardelyx, Inc., priority 2015, dated 2024).

target: T1, human TGR5 (Homo sapiens, UniProt Q8TDU6); assay: Cell-based TGR5 assay (cAMP generation, HTRF); conditions: HEK293 cells stably transfected with human TGR5; cAMP by HTRF; 30 minutes at 37° C.; read-out: pEC50 Human TGR5 (converted)
T1 construct: expressed in transfected cells; host or cells: HEK293
T1 sequence (Q8TDU6 1-330): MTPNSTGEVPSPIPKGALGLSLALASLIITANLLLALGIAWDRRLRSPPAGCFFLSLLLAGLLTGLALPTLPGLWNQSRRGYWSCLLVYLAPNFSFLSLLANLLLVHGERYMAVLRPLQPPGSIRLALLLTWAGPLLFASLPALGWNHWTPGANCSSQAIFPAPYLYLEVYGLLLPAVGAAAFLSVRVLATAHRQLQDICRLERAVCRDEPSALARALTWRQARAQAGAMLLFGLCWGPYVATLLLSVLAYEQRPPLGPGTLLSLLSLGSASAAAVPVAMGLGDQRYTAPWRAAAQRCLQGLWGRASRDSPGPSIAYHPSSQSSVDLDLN
Outline: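 First, compounds in 3-fold serial dilution were placed in HBSS with 10 mM HEPES pH 7.4 and 0.5 mM IBMX. Next, human TGR5-expressing HEK293 cells were added and incubated 30 min at 37° C. Finally, cAMP was detected by HTRF and pEC50 derived by logistic fitting.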

SMILES | EC50 [nM]
O=C([C@@H](O)[C@@H](O)[C@H](O)[C@@H](O)CO)N(CCCCSc1ccc(Cl)c(COC2(c3cnccc3-c3ccccc3OC3CC3)CC2)c1)C1CCOCC1 [Compound I-514, (2S,3S,4R,5S)-N-(4-{[4-chloro-3-({1-[4-(2-cyclopropoxyphenyl)pyridin-3-yl]cyclopropoxy}methyl)phenyl]sulfanyl}butyl)-2,3,4,5,6-pentahydroxy-N-(oxan-4-yl)hexanamide] | < 100
O=C([C@@H](O)[C@@H](O)[C@H](O)[C@@H](O)CO)N(CCCCSc1ccc(Cl)c(COC2(c3cnccc3-c3ccccc3OC3CC3)CC2)c1)CC1CCOCC1 [Compound I-516, (2S,3S,4R,5S)-N-(4-{[4-chloro-3-({1-[4-(2-cyclopropoxyphenyl)pyridin-3-yl]cyclopropoxy}methyl)phenyl]sulfanyl}butyl)-2,3,4,5,6-pentahydroxy-N-(oxan-4-ylmethyl)hexanamide] | < 100
O=C([C@@H](O)[C@@H](O)[C@H](O)[C@@H](O)CO)N(CCCSc1ccc(Cl)c(COC2(c3cnccc3-c3ccccc3OC3CC3)CC2)c1)CCN1CCS(=O)(=O)CC1 [Compound I-521, (2S,3S,4R,5S)-N-(3-{[4-chloro-3-({1-[4-(2-cyclopropoxyphenyl)pyridin-3-yl]cyclopropoxy}methyl)phenyl]sulfanyl}propyl)-N-[2-(1,1-dioxo-1λ^6,4-thiomorpholin-4-yl)ethyl]-2,3,4,5,6-pentahydroxyhexanamide] | 126 to 1000
O=C([C@@H](O)[C@@H](O)[C@H](O)[C@@H](O)CO)N(CCCSc1ccc(Cl)c(COC2(c3cnccc3-c3ccccc3OC3CC3)CC2)c1)CC1CCOCC1 [Compound I-522, (2S,3S,4R,5S)-N-(3-{[4-chloro-3-({1-[4-(2-cyclopropoxyphenyl)pyridin-3-yl]cyclopropoxy}methyl)phenyl]sulfanyl}propyl)-2,3,4,5,6-pentahydroxy-N-(oxan-4-ylmethyl)hexanamide] | 126 to 1000
O=C([C@@H](O)[C@@H](O)[C@H](O)[C@@H](O)CO)N(CCCCSc1ccc(Cl)c(COC2(c3cnccc3-c3ccccc3OC3CC3)CC2)c1)CCN1CCS(=O)(=O)CC1 [Compound I-524, (2S,3S,4R,5S)-N-(4-{[4-chloro-3-({1-[4-(2-cyclopropoxyphenyl)pyridin-3-yl]cyclopropoxy}methyl)phenyl]sulfanyl}butyl)-N-[2-(1,1-dioxo-1λ^6,4-thiomorpholin-4-yl)ethyl]-2,3,4,5,6-pentahydroxyhexanamide] | 126 to 1000
O=C([C@@H](O)[C@@H](O)[C@H](O)[C@@H](O)CO)N(CCCSc1ccc(Cl)c(CNC2(c3cnccc3-c3ccccc3OC3CC3)CC2)c1)CCOCCO [Compound I-526, (2S,3S,4R,5S)-N-[3-({4-chloro-3-[({1-[4-(2-cyclopropoxyphenyl)pyridin-3-yl]cyclopropyl}amino)methyl]phenyl}sulfanyl)propyl]-2,3,4,5,6-pentahydroxy-N-[2-(2-hydroxyethoxy)ethyl]hexanamide] | 126 to 1000
O=C([C@@H](O)[C@@H](O)[C@H](O)[C@@H](O)CO)N(CCCCO)CCCSc1ccc(Cl)c(CNC2(c3cnccc3-c3ccccc3OC3CC3)CC2)c1 [Compound I-527, (2S,3S,4R,5S)-N-[3-({4-chloro-3-[({1-[4-(2-cyclopropoxyphenyl)pyridin-3-yl]cyclopropyl}amino)methyl]phenyl}sulfanyl)propyl]-2,3,4,5,6-pentahydroxy-N-(4-hydroxybutyl)hexanamide] | < 100
O=C([C@@H](O)[C@@H](O)[C@H](O)[C@@H](O)CO)N(CCCSc1ccc(Cl)c(CNC2(c3cnccc3-c3ccccc3OC3CC3)CC2)c1)C1CCOCC1 [Compound I-528, (2S,3S,4R,5S)-N-[3-({4-chloro-3-[({1-[4-(2-cyclopropoxyphenyl)pyridin-3-yl]cyclopropyl}amino)methyl]phenyl}sulfanyl)propyl]-2,3,4,5,6-pentahydroxy-N-(oxan-4-yl)hexanamide] | 126 to 1000
O=C1CCCN1CCCN(CCCSc1ccc(Cl)c(CNC2(c3cnccc3-c3ccccc3OC3CC3)CC2)c1)C(=O)[C@@H](O)[C@@H](O)[C@H](O)[C@@H](O)CO [Compound I-529, (2S,3S,4R,5S)-N-[3-({4-chloro-3-[({1-[4-(2-cyclopropoxyphenyl)pyridin-3-yl]cyclopropyl}amino)methyl]phenyl}sulfanyl)propyl]-2,3,4,5,6-pentahydroxy-N-[3-(2-oxopyrrolidin-1-yl)propyl]hexanamide] | 126 to 1000
O=C([C@@H](O)[C@@H](O)[C@H](O)[C@@H](O)CO)N(CCCSc1ccc(Cl)c(CNC2(c3cnccc3-c3ccccc3OC3CC3)CC2)c1)CCN1CCS(=O)(=O)CC1 [Compound I-530, (2S,3S,4R,5S)-N-[3-({4-chloro-3-[({1-[4-(2-cyclopropoxyphenyl)pyridin-3-yl]cyclopropyl)amino)methyl]phenyl}sulfanyl)propyl]-N-[2-(1,1-dioxo-1λ^6,4-thiomorpholin-4-yl)ethyl]-2,3,4,5,6-pentahydroxyhexanamide] | 126 to 1000

The remaining lines, values ahead:

EC50 [nM] | SMILES
< 100 | O=C([C@@H](O)[C@@H](O)[C@H](O)[C@@H](O)CO)N(CCCCSc1ccc(Cl)c(COC2(c3cnccc3-c3ccccc3OC3CC3)CC2)c1)CCOCCO [Compound I-512, (2S,3S,4R,5S)-N-(4-{[4-chloro-3-({1-[4-(2-cyclopropoxyphenyl)pyridin-3-yl]cyclopropoxy}methyl)phenyl]sulfanyl}butyl)-2,3,4,5,6-pentahydroxy-N-[2-(2-hydroxyethoxy)ethyl]hexanamide]
< 100 | O=C([C@@H](O)[C@@H](O)[C@H](O)[C@@H](O)CO)N(CCCCO)CCCCSc1ccc(Cl)c(COC2(c3cnccc3-c3ccccc3OC3CC3)CC2)c1 [Compound I-513, (2S,3S,4R,5S)-N-(4-{[4-chloro-3-({1-[4-(2-cyclopropoxyphenyl)pyridin-3-yl]cyclopropoxy}methyl)phenyl]sulfanyl}butyl)-2,3,4,5,6-pentahydroxy-N-(4-hydroxybutyl)hexanamide]
< 100 | O=C1CCCN1CCCN(CCCCSc1ccc(Cl)c(COC2(c3cnccc3-c3ccccc3OC3CC3)CC2)c1)C(=O)[C@@H](O)[C@@H](O)[C@H](O)[C@@H](O)CO [Compound I-515, (2S,3S,4R,5S)-N-(4-{[4-chloro-3-({1-[4-(2-cyclopropoxyphenyl)pyridin-3-yl]cyclopropoxy}methyl)phenyl]sulfanyl}butyl)-2,3,4,5,6-pentahydroxy-N-[3-(2-oxopyrrolidin-1-yl)propyl]hexanamide]
< 100 | O=C1NCCN1CCN(CCCCSc1ccc(Cl)c(COC2(c3cnccc3-c3ccccc3OC3CC3)CC2)c1)C(=O)[C@@H](O)[C@@H](O)[C@H](O)[C@@H](O)CO [Compound I-517, (2S,3S,4R,5S)-N-(4-{[4-chloro-3-({1-[4-(2-cyclopropoxyphenyl)pyridin-3-yl]cyclopropoxy}methyl)phenyl]sulfanyl}butyl)-2,3,4,5,6-pentahydroxy-N-[2-(2-oxoimidazolidin-1-yl)ethyl]hexanamide]
< 100 | O=C([C@@H](O)[C@@H](O)[C@H](O)[C@@H](O)CO)N(CCCSc1ccc(Cl)c(COC2(c3cnccc3-c3ccccc3OC3CC3)CC2)c1)CCOCCO [Compound I-518, (2S,3S,4R,5S)-N-(3-{[4-chloro-3-({1-[4-(2-cyclopropoxyphenyl)pyridin-3-yl]cyclopropoxy}methyl)phenyl]sulfanyl}propyl)-2,3,4,5,6-pentahydroxy-N-[2-(2-hydroxyethoxy)ethyl]hexanamide]
126 to 1000 | O=C([C@@H](O)[C@@H](O)[C@H](O)[C@@H](O)CO)N(CCCCO)CCCSc1ccc(Cl)c(COC2(c3cnccc3-c3ccccc3OC3CC3)CC2)c1 [Compound I-519, (2S,3S,4R,5S)-N-(3-{[4-chloro-3-({1-[4-(2-cyclopropoxyphenyl)pyridin-3-yl]cyclopropoxy}methyl)phenyl]sulfanyl}propyl)-2,3,4,5,6-pentahydroxy-N-(4-hydroxybutyl)hexanamide]
126 to 1000 | O=C1CCCN1CCCN(CCCSc1ccc(Cl)c(COC2(c3cnccc3-c3ccccc3OC3CC3)CC2)c1)C(=O)[C@@H](O)[C@@H](O)[C@H](O)[C@@H](O)CO [Compound I-520, (2S,3S,4R,5S)-N-(3-{[4-chloro-3-({1-[4-(2-cyclopropoxyphenyl)pyridin-3-yl]cyclopropoxy}methyl)phenyl]sulfanyl}propyl)-2,3,4,5,6-pentahydroxy-N-[3-(2-oxopyrrolidin-1-yl)propyl]hexanamide]
< 100 | CS(=O)(=O)CCCN(CCCCSc1ccc(Cl)c(COC2(c3cnccc3-c3ccccc3OC3CC3)CC2)c1)C(=O)[C@@H](O)[C@@H](O)[C@H](O)[C@@H](O)CO [Compound I-523, (2S,3S,4R,5S)-N-(4-{[4-chloro-3-({1-[4-(2-cyclopropoxyphenyl)pyridin-3-yl]cyclopropoxy}methyl)phenyl]sulfanyl}butyl)-2,3,4,5,6-pentahydroxy-N-(3-methanesulfonylpropyl)hexanamide]
126 to 1000 | CS(=O)(=O)CCCN(CCCSc1ccc(Cl)c(CNC2(c3cnccc3-c3ccccc3OC3CC3)CC2)c1)C(=O)[C@@H](O)[C@@H](O)[C@H](O)[C@@H](O)CO [Compound I-525, (2S,3S,4R,5S)-N-[3-({4-chloro-3-[({1-[4-(2-cyclopropoxyphenyl)pyridin-3-yl]cyclopropyl}amino)methyl]phenyl}sulfanyl)propyl]-2,3,4,5,6-pentahydroxy-N-(3-methanesulfonylpropyl) hexanamide]
